This note sets out measurements from US20120244567A1, “HUMAN EMBRYONIC STEM CELLS FOR HIGH THROUGHOUT DRUG SCREENING” (BUCK INSTITUTE FOR RESEARCH ON AGING, priority 2009, published 2012).

Structures can show the parent of a compound that is named as a salt. Where two headings read alike, the source gives them in different places.

The test system of experiment [1] is hESCs and hESC-derived NSCs. In words: Comparative ATP screening on hESCs and hESC-derived NSCs (ratio ESC/NSC or NSC/ESC). Further details: hit class in primary screen / ESC/NSC: dose or concentration left out as unconfirmed. The settings on record: for hit class in primary screen: NINDS primary screen, ATP relative to DMSO controls.
Excerpt: Hits were defined based on the ability of a compound to affect ATP levels relative to DMSO controls on each plate.
The next experiment deals with hESC-derived NSCs. Put plainly: ATP assay in hESC-derived NSCs (96-well, primary screen and retest). Details: cytotoxicity: dose or concentration left out as unconfirmed; toxicity to NSCs (reduced ATP concentrations) / ATP levels in NSC population: unit of the concentration uncertain. The class given is cell-based, human. The conditions noted are these: for toxicity to NSCs (reduced ATP concentrations): 1 (unit uncertain), 2.5 (unit uncertain) and 10 (unit uncertain), treated NSCs versus untreated NSCs, untreated and treated hESCs. The method, then:
EBs were then cultured for additional 2-3 days in suspension in neural induction media containing DMEM/F12 with Glutamax, 1×NEAA, 1×N2 and FGF2 (20 ng/ml) prior to attachment on cell culture plates. […] To obtain a pure population of NSCs, rosettes were manually isolated and dissociated into single cells using Accutase. The NSCs population was expanded in Neurobasal media containing 1×NEAA, 1×L-Glutamine (2 mM), 1×B27, LIF and FGF2 20 ng/ml.
Media was changed every day for hESCs and every other day for NSCs and additionally changed prior to drug treatment. The cells were treated with compounds from the NINDS library diluted in […] of either ESC or NSC media to a final concentration of 2.5 mM in 0.01% DMSO. […] For all sampling, ESC and NSC plates were processed in parallel for one drug or control condition at a time.
For ATP measurements, the media was removed, cells were washed 1× in milliQ water and reconstituted in […] ATP-Lite Mammalian Lysis Buffer and shaken for 5 minutes. Two […] aliquots of lysed cells were replated onto separate 96 well plates for later protein measurements.
To identify compounds that are toxic to hESCs, hESC-derived NSCs, or both, we screened 720 FDA-approved drugs of the NINDS collection by testing the toxicity of each drug at a dose of 2.5 mM. For endpoint measurement of cell death caused by drug toxicity, we used a widely accepted ATP assay that measures changes in ATP level as an indicator of cellular response to cell death. In this assay, total ATP content per well was measured and normalized to the total cellular protein.
Three concentrations of each compound (1 mM, 2.5 mM and 10 mM) were used in the retest.

Setting [2] is: Prestwick screening data, group: Toxic To ESCs (and not NSCs).
[3] abbreviates: Prestwick screening data, group: Toxic To NSC (and not ESCs).
Setting [4] is: Prestwick screening data, group: Toxic to both but (5x) more toxic to ESCs.
Setting [5] is: Homo sapiens, NINDS primary screen, 48 hours, read-out: NSC ATP values below the control mean.
Where [6] appears, read: NINDS screening data, […], ATP assay, 48 hours.

Regarding `COc1ccc(CN(CCN(C)C)c2ccccn2)cc1` [Pyrilamine Maleate], the NSC/ESC in experiment [1] (setting [2]) is on record as 1.934.

Regarding `CC(=O)Oc1ccc(C(c2ccc(OC(C)=O)cc2)c2ccccn2)cc1` [Bisacodyl], the ESC/NSC in experiment [1] (setting [3]) was found to be 2.701.

For the compound `COC(=O)Nc1nc2ccc(SC(C)C)cc2[nH]1` [Methiazole], the ESC/NSC in experiment [1] (setting [3]) stood at 3.01.

For `CC[C@@]1(O)C(=O)OCc2c1cc1n(c2=O)Cc2cc3ccccc3nc2-1` [Camptothecine (S,+)], in experiment [1] (setting [4]), the NSC/ESC stood at 14.46.

In the case of `CN(Cc1cnc2nc(N)nc(N)c2n1)c1ccc(C(=O)N[C@@H](CCC(=O)O)C(=O)O)cc1` (racemic) [Amethopterin (R,S)], in experiment [1] (setting [3]), the ESC/NSC is on record as 6.45.

`[O-][n+]1ccccc1[S-].[O-][n+]1ccccc1[S-].[Zn+2]` [Pyrithione Zinc]: the ESC/NSC in experiment [1] was 116.4.

For the compound `CO[C@H]1C[C@H](O[C@@H]2/C(C)=C/C[C@@H]3C[C@@H](C[C@]4(CC[C@H](C)[C@@H](C5CCCCC5)O4)O3)OC(=O)[C@@H]3C=C(C)/C(=N/O)[C@H]4OC/C(=C\C=C\[C@@H]2C)[C@]43O)O[C@@H](C)[C@@H]1O` [Selamectin], in the experiment on hESC-derived NSCs (Homo sapiens, NINDS primary screen, 2.5 mM, 48 hours, read-out: NSC ATP values below the control mean), the cytotoxicity at 2500 µM is no less than 15%. Moreover, in the experiment with hESC-derived NSCs (retest), the “toxicity to NSCs (reduced ATP concentrations)” value is “dose-dependent specific toxicity”. Further, in the experiment with hESC-derived NSCs (retest, FIG. 2 panel B), the “effect on NSC survival among dose responsive compounds” value is “most dramatic effect on NSC survival”. Also, in experiment [1], the “hit class in primary screen” value is listed as “NSC Killers”.

As for `Cl.Cl.c1ccc2c3c([nH]c2c1)C1C2CCC(C4CCCNC42)N1CC3` (stereo not shown) [Nitrarine Dihydrochloride], the NSC/ESC in experiment [1] (setting [2]) was 1.949.

Take `Fc1ccc(C(OCCN2CCN(CCCc3ccccc3)CC2)c2ccc(F)cc2)cc1` [Gbr 12909 Dihydrochloride]: the NSC/ESC in experiment [1] (setting [2]) came to 1.754.

As to `COC1=CC(=O)C[C@@H](C)[C@]12Oc1c(Cl)c(OC)cc(OC)c1C2=O` [griseofulvin], the cytotoxicity in the experiment on hESC-derived NSCs (setting [5]) was no less than 15%. Moreover, the “hit class in primary screen” value in experiment [1] was “NSC Killers”.

Consider `CCCCCCCCCCCCCCCC[N+](C)(C)C.[Br-]` [Cetrimonium Bromide], for which the ESC/NSC in experiment [1] (setting [6]) stood at 5.402.

In the case of `CC1=CC(=O)c2ccccc2C1=O` [Menadione], the cytotoxicity in the experiment with hESC-derived NSCs (setting [5]) is no less than 15%. In addition, the “toxicity to NSCs (reduced ATP concentrations)” value in the experiment on hESC-derived NSCs (retest) is “dose-dependent specific toxicity”. Also, the “hit class in primary screen” value in experiment [1] was “NSC Killers”.

Take `C[n+]1cc2c3c(ccc2c2ccc4cc5c(cc4c21)OCO5)OCO3` [Sanguinarine]: the ESC/NSC in experiment [1] (Prestwick screening data, […]) was 102.6.

On to `CC[C@@H](C(=O)[C@@H](C)[C@@H](O)[C@H](C)CCc1ccc(C)c(O)c1C(=O)O)[C@H]1O[C@](CC)([C@H]2CC[C@](O)(CC)[C@H](C)O2)C[C@@H]1C` [Lasalocid Sodium Salt], for which, in experiment [1] (setting [3]), the ESC/NSC came out at 2.052.

For the compound `CNc1ccc2oc(C[C@H]3O[C@@]4(CC[C@H]3C)O[C@H]([C@H](C)C(=O)c3ccc[nH]3)[C@H](C)C[C@H]4C)nc2c1C(=O)O` [Calcimycin], in experiment [1] (setting [6]), the ESC/NSC came to 377.6.

As to `C[n+]1cc2c3c(ccc2c2ccc4cc5c(cc4c21)OCO5)OCO3` [Sanguinarine Nitrate], the ESC/NSC in experiment [1] (setting [6]) is listed as 8.446.

`CCc1nc(N)nc(N)c1-c1ccc(Cl)cc1` [Pyrimethamine]: in experiment [1] (setting [3]), the ESC/NSC stood at 2.009.

`CCCCCCCCCCCCCCCC[n+]1ccccc1` [Cetylpyridinium Chloride]: in experiment [1], the ESC/NSC is on record as 109.4.

On to `CN1CCN(CC(=O)N2c3ccccc3C(=O)Nc3cccnc32)CC1` [pirenzepine HCL], for which, in the experiment with hESC-derived NSCs (setting [5]), the cytotoxicity is no less than 15%. For the same compound, the “toxicity to NSCs (reduced ATP concentrations)” value in the experiment on hESC-derived NSCs (retest) is “dose-dependent specific toxicity”. The “hit class in primary screen” value in experiment [1] is recorded as “NSC Killers”.

Turning to `COc1ccc2c(c1OC)CN1CCc3cc4c(cc3C1C2)OCO4` (stereo not shown) [(D,L)-Tetrahydroberberine], the NSC/ESC in experiment [1] (setting [2]) is reported as 2.336.

As to Clofilium Tosylate, the NSC/ESC in experiment [1] (setting [2]) is 2.184.

Regarding `COc1ccc(C[C@H](N)C(=O)N[C@H]2[C@@H](O)[C@H](n3cnc4c(N(C)C)ncnc43)O[C@@H]2CO)cc1` [Puromycin Dihydrochloride], in experiment [1] (setting [4]), the NSC/ESC was found to be 10.84.

In the case of `CC(=O)O[C@H]1C(=O)[C@@]2(C)[C@H]([C@H](OC(=O)c3ccccc3)[C@]3(O)C[C@H](OC(=O)[C@H](O)[C@@H](NC(=O)c4ccccc4)c4ccccc4)C(C)=C1C3(C)C)[C@]1(OC(C)=O)CO[C@@H]1C[C@@H]2O` [Paclitaxel], the NSC/ESC in experiment [1] (setting [4]) is listed as 5.325.

As to `C[C@H]1CC[C@]2(NC1)O[C@H]1C[C@H]3[C@@H]4CC[C@H]5C[C@@H](O[C@@H]6O[C@H](CO)[C@H](O[C@@H]7O[C@H](CO)[C@@H](O)[C@H](O[C@@H]8OC[C@@H](O)[C@H](O)[C@H]8O)[C@H]7O[C@@H]7O[C@H](CO)[C@@H](O)[C@H](O)[C@H]7O)[C@H](O)[C@H]6O)CC[C@]5(C)[C@H]4CC[C@]3(C)[C@H]1[C@@H]2C` [Tomatine], the ESC/NSC in experiment [1] (Prestwick screening data, […]) is listed as 9.242.

Consider `COc1cccc2c1C(=O)c1c(O)c3c(c(O)c1C2=O)C[C@@](O)(C(=O)CO)C[C@@H]3O[C@H]1C[C@H](N)[C@H](O)[C@H](C)O1` [Doxorubicin Hydrochloride], for which, in experiment [1] (setting [4]), the NSC/ESC is 8.906.

In the case of `CC[N+]1(C)[C@@H]2CC[C@H]1CC(OC(=O)[C@@H]1CC[C@@](C(=O)OC3C[C@H]4CC[C@@H](C3)[N+]4(C)CC)(c3ccccc3)c3ccccc31)C2.[Cl-].[Cl-]` (stereo partly drawn) [Beta-Belladonnine Dichloroethylate], the NSC/ESC in experiment [1] (setting [2]) is 2.717.

In the case of `C1CCC(C(CC2CCCCN2)C2CCCCC2)CC1.O=C(O)/C=C\C(=O)O` (stereo not shown) [Perhexilline Maleate], the “hit class in primary screen” value in experiment [1] is reported as “NSC Killers”.

Take (−)-Levobunolol Hydrochloride: the NSC/ESC in experiment [1] (setting [2]) is 1.689.

With `CCCCC(CC)CN1CN(CC(CC)CCCC)CC(C)(N)C1` (stereo not shown) [Hexetidine], the cytotoxicity with hESC-derived NSCs (setting [5]) is no less than 15%. Moreover, the “hit class in primary screen” value in experiment [1] is given as “NSC Killers”.

On to `O=c1[nH]c(=O)n([C@H]2C[C@H](O)[C@@H](CO)O2)cc1C(F)(F)F` [Trifluridine], for which the ESC/NSC in experiment [1] (setting [3]) is 2.955.

As to `C[C@@]12C(=O)OC(=O)[C@]1(C)[C@H]1CC[C@@H]2O1` [Cantharidin], in experiment [1] (Prestwick screening data, group: Toxic to both but (>5x) more toxic to NSCs), the ESC/NSC is 6.171.

In the case of `CN1Cc2c(ccc3c2OCO3)C2C(O)Cc3cc4c(cc3C21)OCO4` (stereo not drawn) [Chelidonine (+)], the ESC/NSC in experiment [1] (setting [3]) was 1.999.

Regarding `CCN(CC)C(=S)SSC(=S)N(CC)CC` [Disulfiram], in experiment [1] (setting [2]), the NSC/ESC was 10.3.

Turning to `COc1cc(-c2ccc(=O)[nH]n2)ccc1OC(F)F` [Zardaverine], the NSC/ESC in experiment [1] (setting [2]) was 1.976.

`CCC(=O)O[C@]1(C(=O)SCF)[C@H](C)C[C@H]2[C@@H]3C[C@H](F)C4=CC(=O)C=C[C@]4(C)[C@@]3(F)[C@@H](O)C[C@@]21C` [Fluticasone Propionate]: in experiment [1] (setting [2]), the NSC/ESC is 1.954.

On to `CC(C)(C)CC(C)(C)c1ccc(O)c(Cc2ccc(Cl)cc2Cl)c1` [Clofoctol], for which, in the experiment with hESC-derived NSCs (setting [5]), the cytotoxicity is no less than 15%. Moreover, the “toxicity to NSCs (reduced ATP concentrations)” value in the experiment with hESC-derived NSCs (retest) is on record as “dose-dependent specific toxicity”. In experiment [1], the “hit class in primary screen” value is on record as “NSC Killers”.

Take `Cc1ccnc(NS(=O)(=O)c2ccc(N)cc2)n1` [Sulfamerazine]: the NSC/ESC in experiment [1] (setting [2]) worked out at 2.003.

In the case of `CC1(C)O[C@@H]2C[C@H]3[C@@H]4C[C@H](F)C5=CC(=O)CC[C@]5(C)[C@H]4[C@@H](O)C[C@]3(C)[C@]2(C(=O)CO)O1` [Flurandrenolide], the NSC/ESC in experiment [1] (setting [2]) was 2.308.
